Results published in article PMC3269340, “Pharmacokinetics of memantine in rats and mice” (PLoS Currents, 2012).

Key:
[1] = Stability in mouse liver microsomes; assay type: in vitro ADME; conditions: 0.5 mg/mL pooled male microsomes, read-out: Intrinsic Clearance (Cl int) Liver Microsomes
Method: Memantine (1 μM) was incubated in 0.5 mg/mL of pooled male rat, mouse, or human liver microsomes (obtained commercially), in 0.1 M phosphate buffer at 37 °C. After pre-warming the mixture for 5 min, reactions were initiated by the addition of NADPH (1 mM). Aliquots (80 μL) were taken at 0, 5, 10, 20 and 40 min, and the reaction immediately terminated by adding into 80 μL of acetonitrile containing an analytical internal standard (IS). Samples were centrifuged and the supernatant fractions analyzed by LC-MS/MS with multiple reaction monitoring (MRM). All incubations were performed in duplicate. Testosterone was used as the positive control. The MRM area response ratio of the analyte over IS for Time=0(control) was set to 100%, the relative decrease in MRM area ratio intensity over time against that of the control (percent parent decrease) was used to determine the half-life (t1/2) of memantine in the incubation. Half-life values were calculated from the relationship:
t1/2 (min) = -0.693/λ, where λ is the slope of the Ln concentration vs time curve. The intrinsic clearance (Clint) was calculated as:
Clint = (0.693 x incubation volume (μL))/(t½ (min) x mg of microsomal protein)

[2] = Bidirectional Caco permeability; assay type: in vitro ADME; conditions: human, Caco-2, pH 7.4
Method: (§1) CacoReady ^TM 24-transwell plates with plated Caco cells were purchased from Advancell, and were prepared for the experiments following manufacturer’s instructions. Memantine and reference compounds (propranolol, digoxin and vinblatine) were added to either the apical or basolateral chambers of the transwell plate assembly at a concentration of 10 μM prepared in Hanks’ Balanced Salt Solution containing 25 mM HEPES (pH7.4). Lucifer Yellow (LY) was added to the donor buffer in all wells to assess viability of the cell layer. Since LY cannot freely permeate lipophilic barriers, results were rejected when a high degree of LY transport (>100nm/s) was observed. After a 1 h incubation at 37°C, aliquots were taken from both chambers and added to acetonitrile containing an analytical internal standard in a 96-well plate. Concentrations of compound in the samples were measured by (HPLC-MS/MS).
(§2) Papp values were calculated from the relationship:
(§3) Papp = ([compound]acceptor final × Va )/ (A × time ([compound]donor initial )
(§4) The efflux ratio (Er) was calculated as
(§5) Er = Papp (B to A) / Papp (A to B)

Caco2 cells = assay: Bidirectional Caco permeability; assay type: in vitro ADME; conditions: Caco2 cells
Method: as §1, §2, §3, §4, §5

human PEPT1 = molecular target: T1, human PEPT1 (Homo sapiens, UniProt P46059); assay: Direct uptake transporter assay, PEPT1; assay type: in vitro ADME; conditions: for Accumulation in transporter transfected cells: PEPT1-transfected cells; for Accumulation in parental cells: parental CHO cells (PEPT1 line)
T1 sequence (P46059 1-708): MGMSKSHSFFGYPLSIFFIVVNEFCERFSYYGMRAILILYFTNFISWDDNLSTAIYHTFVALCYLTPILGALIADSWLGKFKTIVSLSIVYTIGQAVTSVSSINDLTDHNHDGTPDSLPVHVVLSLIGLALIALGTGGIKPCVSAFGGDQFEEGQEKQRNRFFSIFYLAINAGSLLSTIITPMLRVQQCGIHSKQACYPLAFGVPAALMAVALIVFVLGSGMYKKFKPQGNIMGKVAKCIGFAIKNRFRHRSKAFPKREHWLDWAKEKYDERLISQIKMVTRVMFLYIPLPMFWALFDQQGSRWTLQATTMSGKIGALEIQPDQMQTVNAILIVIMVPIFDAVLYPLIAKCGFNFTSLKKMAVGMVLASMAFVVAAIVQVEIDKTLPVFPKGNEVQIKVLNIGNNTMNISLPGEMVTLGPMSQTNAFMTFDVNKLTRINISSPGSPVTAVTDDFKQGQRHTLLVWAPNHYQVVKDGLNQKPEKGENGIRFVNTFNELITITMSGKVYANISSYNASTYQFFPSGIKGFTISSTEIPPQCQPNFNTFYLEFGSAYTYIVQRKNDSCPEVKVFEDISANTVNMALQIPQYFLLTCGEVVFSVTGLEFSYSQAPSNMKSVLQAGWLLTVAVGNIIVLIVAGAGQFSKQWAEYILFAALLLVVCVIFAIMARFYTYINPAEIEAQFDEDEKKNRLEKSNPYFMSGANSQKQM
Method: To determine whether memantine is a substrate of the human OATP2B1 (OATP-B), OCT1, OCT2, OAT3, PEPT1, PEPT2 uptake transporters.
The potential for memantine to be a substrate of an uptake transporter was determined directly by comparing the uptake of memantine into cells expressing the selected uptake transporter with its uptake into control cells. Memantine was added to transporter-expressing and control cells at two concentrations (PEPT1 and PEPT2 100 and 300 µM, OCT1 and OCT2 50 and 100 µM, OATP2B1 100 and 300 µM), and incubated with cells for 2 and 20 min at 37±1°C (75 µL final incubation volume). The final concentrations of memantine were selected to be the IC50 of reporter substrate transport inhibition established in the indirect transporter assay and one order of magnitude lower. Incubations were carried out as described in the indirect uptake transporter assays. The concentration of memantine was determined by LC-MS/MS.

[3] = system: Alzheimer's disease patients; conditions: cited from earlier work

With `CC12CC3CC(C)(C1)CC(N)(C3)C2` [memantine] the microsomal CLint at 1 μM [1] was under 13.9 µL/min/mg, the Papp A→B at 1 h, 10 μM ([2]; 10 μM, pH7.4, 1 h, read-out: Caco Permeability AtoB) was 43.4 ×10⁻⁶ cm/s and the Papp B→A at 1 h, 10 μM ([2]; 10 μM, pH7.4, 1 h, read-out: Caco Permeability BtoA) was 47 ×10⁻⁶ cm/s. For the same compound, the efflux ratio at 1 h, 10 μM ([2]; Papp (B to A) / Papp (A to B), read-out: ER (efflux ratio)) was about 1, the “MDR1 (Pgp) substrate” value (Caco2 cells) was “not a MDR1 (Pgp) substrate” and the “Highest Fold Activation” value (human PEPT1; PEPT1, 100µM, 20 min) was 1.1 (100µM, 20 min). The “Accumulation in transporter transfected cells” value (human PEPT1; 2 min, 100 µM) was 1073 pmol/mg, the “Accumulation in transporter transfected cells” value (human PEPT1; 2 min, 300 µM) was 2290 pmol/mg and the “Accumulation in transporter transfected cells” value (human PEPT1; 20 min, 100 µM) was 1087 pmol/mg. The “Accumulation in transporter transfected cells” value (human PEPT1; 20 min, 300 µM) was 1682 pmol/mg, the “substrate of PEPT1 uptake transporter” value (human PEPT1; no preferential accumulation in transfected over parental cells) was “not a substrate” and the “Accumulation in parental cells” value (human PEPT1; 2 min, 100 µM) was 969 pmol/mg. For the same compound, the “Accumulation in parental cells” value (human PEPT1; 2 min, 300 µM) was 2389 pmol/mg, the “Accumulation in parental cells” value (human PEPT1; 20 min, 100 µM) was 981 pmol/mg and the “Accumulation in parental cells” value (human PEPT1; 20 min, 300 µM) was 1614 pmol/mg. The “efficacy in dementia patients” value ([3]; 10 mg single daily dose for 12 weeks) was “demonstrated efficacy” and the “efficacy in moderate to severe AD” value ([3]; humans, 10 mg twice daily, 6-month study) was “efficacious”.
